The results in this text go back to patent publication US5635379A, “D-2-alkyl-tryptophan and peptides containing same” (Deghenghi; Romano, priority 1990, dated 1997).

Molecules are shown by their SMILES. Square brackets hold non-standard residues; d marks the D form. Peptide text beside a SMILES is read from it. dTrp(2-Me) = Cc1[nH]c2ccccc2c1C[C@@H](N)C(=O)O

The subject of the test is GH release. As to the kind of experiment: GH release in pentobarbital-anesthetized rats, s.c. It counts as in vivo, Sprague Dawley rats. Here is the method:
Male Sprague Dawley rats weighing 225-250 g were divided in groups of five animals each. Rats were anesthetized with Nembutal injected intraperiteonally at 50 mg/kg, fifteen minutes prior to the first blood withdrawal taken over heparin by cardiac puncture (for determination of basal GH).
Subcutaneous injections of either HEXARELIN or GHRP-6 were given immediately after the first blood collection, and additional blood samples were collected 15 and 40 minutes later.
Measurement of rat GH was performed by a standard double antibody radioimmunoassay with reagents supplied by the National Pituitary Agency and the National Institute of Arthritis, Diabetes, and Digestive and Kidney Diseases. The standards used were NIADDK-NIH-rGH-RP-2. Statistical data were obtained with the Student's t Test at a significance level of 5%.

As to `Cc1[nH]c2ccccc2c1C[C@@H](NC(=O)[C@@H](N)Cc1cnc[nH]1)C(=O)N[C@@H](C)C(=O)N[C@@H](Cc1c[nH]c2ccccc12)C(=O)N[C@H](Cc1ccccc1)C(=O)N[C@@H](CCCCN)C(N)=O` [Example 4, His-D-2-methyl-Trp-Ala-Trp-D-Phe-Lys-NH2] (H-H[dTrp(2-Me)]AW[dF]K-NH2), the “POST-DRUG PLASMA GH” value by setting is: (s.c. 10 μg/kg, 0 min (basal)) 63 ± 58 ng/mL; (s.c. 10 μg/kg, 15 min) 95 ± 44 ng/mL; (s.c. 10 μg/kg, 40 min) 88 ± 29 ng/mL; (s.c. 25 μg/kg, 0 min (basal)) 56 ± 21 ng/mL; (s.c. 25 μg/kg, 15 min) 388 ± 99 ng/mL; (s.c. 25 μg/kg, 40 min) 100 ± 51 ng/mL. Moreover, the “POST-DRUG PLASMA GH” value by setting is: (s.c. 50 μg/kg, 0 min (basal)) 32 ± 16 ng/mL; (s.c. 50 μg/kg, 15 min) 439 ± 69 ng/mL; (s.c. 50 μg/kg, 40 min) 81 ± 13 ng/mL.
